ChEMBL document CHEMBL4043238, “Discovery of N-substituted 7-azaindoles as Pan-PIM kinase inhibitors - Lead series identification - Part II” (Bioorg Med Chem Lett, 2017)
≈ marks a conversion by molar mass, not a printed value.

Columns and labels:
KG-1 = experiment: Antiproliferative activity against human KG1 cells; type: functional, cell-based
[1] = target: T1, Serine/threonine-protein kinase pim-1 (Homo sapiens, UniProt P11309); experiment: Inhibition of PIM1 (unknown origin) assessed as reduction in BAD phosphorylation at Ser112 residues by TR-FRET assay
[2] = target: Serine/threonine-protein kinase pim-2 (Homo sapiens, UniProt Q9P1W9); experiment: Inhibition of PIM2 (unknown origin) assessed as reduction in BAD phosphorylation at Ser112 residues by TR-FRET assay
[3] = target: T1, Serine/threonine-protein kinase pim-1; experiment: Inhibition of PIM1 in human KG1 cells assessed as reduction in BAD phosphorylation; type: cell-based
[4] = Permeability from apical to basolateral side in human Caco2/TC7 cells at 5 uM; type: ADME, cell-based; details: Caco-2, read-out: permeability
[5] = target: Voltage-gated inwardly rectifying potassium channel KCNH2 (Homo sapiens, UniProt Q12809); experiment: Inhibition of human ERG by patch clamp assay
[6] = Thermodynamic solubility of the compound at pH 7.4; type: physicochemical; details: buffer, read-out: Therm_solubility
Liver [7] = experiment: Stability in human liver microsomes; type: ADME, microsome
Liver [8] = experiment: Stability in rat liver microsomes; type: ADME, microsome
Liver [9] = experiment: Stability in mouse liver microsomes; type: ADME, microsome
Cytochrome P450 3A4 [10] = target: T2, Cytochrome P450 3A4 (Homo sapiens, UniProt P08684); experiment: Inhibition of CYP3A4 (unknown origin) using midazolam as substrate; type: ADME
Cytochrome P450 3A4 [11] = target: T2, Cytochrome P450 3A4; experiment: Inhibition of CYP3A4 (unknown origin) using testosterone as substrate; type: ADME
[12] = AUC (0 to infinity) in rat at 3 mg/kg, iv administered as single dose; type: ADME, organism-based; set-up: dose 3 mg/kg, route intravenous, time infinity; details: in vivo
[13] = AUC (0 to infinity) in rat at 10 mg/kg, po administered as single dose; type: ADME, organism-based; set-up: dose 10 mg/kg, time infinity, route oral; details: in vivo
[14] = Cmax in rat at 10 mg/kg, po administered as single dose; type: ADME, organism-based; set-up: dose 10 mg/kg, route oral; details: in vivo
[15] = Half life in rat at 3 mg/kg, iv administered as single dose; type: ADME, organism-based; details: in vivo
[16] = Clearance in rat at 3 mg/kg, iv administered as single dose; type: ADME, organism-based; details: in vivo
[17] = Volume of distribution at steady state in rat at 3 mg/kg, iv administered as single dose; type: ADME, organism-based; details: in vivo, read-out: Vdss
Mus musculus [18] = experiment: In vivo inhibition of PIM1 in SCID mouse xenografted with human KG1 cells assessed as reduction in BAD phosphorylation at 25 mg/kg, po administered as single dose measured at 8 hrs relative to control; type: functional; details: KG-1, po
Mus musculus [19] = experiment: In vivo inhibition of PIM1 in SCID mouse xenografted with human KG1 cells assessed as reduction in BAD phosphorylation at 25 mg/kg, po administered as single dose measured at 24 hrs relative to control; type: functional; details: KG-1, po
[20] = Plasma concentration in SCID mouse xenografted with human KG1 cells at 25 mg/kg, po administered as single dose measured at 8 hrs; type: ADME, organism-based
[21] = Plasma concentration in SCID mouse xenografted with human KG1 cells at 25 mg/kg, po administered as single dose measured at 24 hrs; type: ADME, organism-based
[22] = Drug uptake in tumor of SCID mouse xenografted with human KG1 cells at 25 mg/kg, po administered as single dose measured at 8 hrs; type: ADME, organism-based, Neoplasm; details: read-out: Drug uptake
[23] = Drug uptake in tumor of SCID mouse xenografted with human KG1 cells at 25 mg/kg, po administered as single dose measured at 24 hrs; type: ADME, organism-based, Neoplasm; details: read-out: Drug uptake
[24] = Protein binding in human plasma; type: ADME, cell-free; details: read-out: PPB
[25] = Protein binding in rat plasma; type: ADME, cell-free; details: read-out: PPB
[26] = Protein binding in mouse plasma; type: ADME, cell-free; details: read-out: PPB

Compound: NC(=O)c1cc(Cl)c2c(Cl)c(C3CC3)n([C@H]3CCCNC3)c2n1
- IC50 (KG-1): 62 nM
- IC50 [1]: 1 nM
- IC50 [2]: 6 nM
- IC50 [3]: 43 nM
- Papp A→B at 5 µM [4]: 3.8 ×10⁻⁶ cm/s
- IC50 [5]: 2900 nM
- solubility thermodynamic [6]: 225 µM (≈ 79.5 µg/mL)
- Stability (Liver [7]): 1%
- Stability (Liver [8]): 6%
- Stability (Liver [9]): 10%
- IC50 (Cytochrome P450 3A4 [10]): > 30000 nM
- IC50 (Cytochrome P450 3A4 [11]): 21000 nM
- AUC(0-inf) [12]: 2620 ng·h/mL
- AUC(0-inf) [13]: 7450 ng·h/mL
- Cmax [14]: 390 ng/mL
- half-life [15]: 13.6 h
- clearance [16]: 18.3 mL/min/kg
- Vd [17]: 20.9 L/kg
- inhibition in vivo at 25 mg/kg (Mus musculus [18]): 60 to 65%
- inhibition in vivo at 25 mg/kg (Mus musculus [19]): 61%
- concentration at 8 h [20]: 18.9 µM
- concentration at 24 h [21]: 8.21 µM
- concentration at 8 h [22]: 101 µM
- concentration at 24 h [23]: 99 µM
- fraction unbound [24]: 0.01
- fraction unbound [25]: 0.01
- fraction unbound [26]: 0.01
